The values that follow come from patent US20230131899A1, “INHIBITORS OF MICROBIALLY INDUCED AMYLOID” (Axial Therapeutics, Inc., priority 2020, published 2023).

For the assay, the target named is T1, human α-synuclein (Homo sapiens, UniProt P37840).
T1 construct: the full-length gene for untagged human α-synuclein was inserted; made in house; host or cells: E. coli BL21(DE3), plasmid derived from pT7 or pET11a
Briefly: Cell-free Thioflavin T assay of α-synuclein aggregation (αSyn ThT Assay). Format: biochemical. The following applies: αSyn 50 μM, compounds at 100 μM. An outline of the steps:
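Untagged full-length human α-synuclein from E. coli, 50 μM, with 20-40 μM ThT, 1% DMSO, compound at 20-100 μM and a glass bead, 37° C. with shaking. Fluorescence (ex 438/em 495 nm) read hourly to 73 h. Compound-only background subtracted and values normalised to vehicle at 36-72 h or final timepoint, giving % inhibition.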

The mark [1] stands for this setting: mean % inhibition of αSyn aggregation relative to DMSO control, read-out: αSyn ThT Assay % Inhibition.
[2] abbreviates: class symbol, read-out: αSyn ThT Assay % Inhibition (activity range).

Where two headings read alike, the source gives them in different places.

Consider `CCCN1CC(C(=O)O)n2c(c(-c3cccc(C(F)(F)F)c3)c(Cc3cccc4ccccc34)c(NC3CCCC3)c2=O)S1(=O)=O` (stereo not drawn) [Compound 126, 7-(cyclopentylamino)-8-(naphthalen-1-ylmethyl)-6-oxo-2-propyl-9-(3-(trifluoromethyl)phenyl)-3,4-dihydro-2H,6H-pyrido[1,2-e][1,2,5]thiadiazine-4-carboxylic acid 1,1-dioxide], for which the inhibition at 100 µM is, setting by setting: under setting [1], 32%; under setting [2], 31 to 60%.

For the molecule `CCN1CC(C(=O)O)n2c(c(-c3cccc(C(F)(F)F)c3)c(Cc3cccc4ccccc34)cc2=O)S1(=O)=O` (single isomer, unassigned) [Compound 015a, 2-ethyl-8-(naphthalen-1-ylmethyl)-6-oxo-9-(3-(trifluoromethyl)phenyl)-3,4-dihydro-2H,6H-pyrido[1,2-e][1,2,5]thiadiazine-4-carboxylic acid 1,1-dioxide], the inhibition at 100 µM was 62% under setting [1] and above 60% under setting [2].

On to `O=C(O)C1CSc2c(-c3cccc(C(F)(F)F)c3)c(Cc3cccc4ccccc34)cc(=O)n21` (racemic) [Compound 011, 7-(naphthalen-1-ylmethyl)-5-oxo-8-(3-(trifluoromethyl)phenyl)-2,3-dihydro-5H-thiazolo[3,2-a]pyridine-3-carboxylic acid], for which the inhibition at 100 µM is 56% under setting [1] and 31 to 60% under setting [2].

Regarding `CN(C)CCN1CC(C(=O)O)n2c(c(-c3cccc(C(F)(F)F)c3)c(Cc3cccc4ccccc34)cc2=O)S1(=O)=O` (stereo not drawn) [Compound 017, 2-(2-(dimethylamino)ethyl)-8-(naphthalen-1-ylmethyl)-6-oxo-9-(3-(trifluoromethyl)phenyl)-3,4-dihydro-2H,6H-pyrido[1,2-e][1,2,5]thiadiazine-4-carboxylic acid 1,1-dioxide], the inhibition at 100 µM is 53% under setting [1] and 31 to 60% under setting [2].

For the molecule `CC(C)N1CC(C(=O)O)n2c(c(-c3cccc(C(F)(F)F)c3)c(Cc3cccc4ccccc34)c(NC3CCCC3)c2=O)S1(=O)=O` (stereo not drawn) [Compound 123, 7-(cyclopentylamino)-2-isopropyl-8-(naphthalen-1-ylmethyl)-6-oxo-9-(3-(trifluoromethyl)phenyl)-3,4-dihydro-2H,6H-pyrido[1,2-e][1,2,5]thiadiazine-4-carboxylic acid 1,1-dioxide], the inhibition at 100 µM by setting is: under setting [1], 76%; under setting [2], above 60%.

As for `CCCN1CC(C(=O)O)n2c(c(-c3cccc(C(F)(F)F)c3)c(Cc3cccc4ccccc34)cc2=O)S1(=O)=O` (racemic) [Compound 016, 8-(naphthalen-1-ylmethyl)-6-oxo-2-propyl-9-(3-(trifluoromethyl)phenyl)-3,4-dihydro-2H,6H-pyrido[1,2-e][1,2,5]thiadiazine-4-carboxylic acid 1,1-dioxide], the inhibition at 100 µM is 68% under setting [1] and above 60% under setting [2].

As to `O=C(O)[C@H]1CS(=O)(=O)c2c(-c3cccc(C(F)(F)F)c3)c(Cc3cccc4ccccc34)cc(=O)n21` (single isomer, unassigned) [Compound 010b, 7-(naphthalen-1-ylmethyl)-5-oxo-8-(3-(trifluoromethyl)phenyl)-2,3-dihydro-5H-thiazolo[3,2-a]pyridine-3-carboxylic acid 1,1-dioxide], the inhibition at 100 µM reads like this: under setting [1], 35%; under setting [2], 31 to 60%.

For `Nc1c(Cc2cccc3ccccc23)c(-c2cccc(C(F)(F)F)c2)c2n(c1=O)C(C(=O)O)CS2` (racemic) [Compound 020, 6-amino-7-(naphthalen-1-ylmethyl)-5-oxo-8-(3-(trifluoromethyl)phenyl)-2,3-dihydro-5H-thiazolo[3,2-a]pyridine-3-carboxylic acid], the inhibition at 100 µM is 53% under setting [1] and 31 to 60% under setting [2].

On to `COc1ccc(CN2C[C@@H](C(=O)O)n3c(c(-c4cccc(C(F)(F)F)c4)c(Cc4cccc5ccccc45)cc3=O)S2(=O)=O)cc1` (single isomer, unassigned) [Compound 026a], for which the inhibition at 100 µM was 51% under setting [1] and 31 to 60% under setting [2].

For `CCc1c(Cc2cccc3ccccc23)c(-c2cccc(C(F)(F)F)c2)c2n(c1=O)C(C(=O)O)CN(C1CCCCC1)S2(=O)=O` (stereo not drawn) [Compound 116, 2-cyclohexyl-7-ethyl-8-(naphthalen-1-ylmethyl)-6-oxo-9-(3-(trifluoromethyl)phenyl)-3,4-dihydro-2H,6H-pyrido[1,2-e][1,2,5]thiadiazine-4-carboxylic acid 1,1-dioxide], the inhibition at 100 µM reads like this: under setting [1], 47%; under setting [2], 31 to 60%.

Consider `O=C(O)CN1CC(C(=O)O)n2c(c(-c3cccc(C(F)(F)F)c3)c(Cc3cccc4ccccc34)cc2=O)S1(=O)=O` (stereo not drawn) [Compound 018, 2-(carboxymethyl)-8-(naphthalen-1-ylmethyl)-6-oxo-9-(3-(trifluoromethyl)phenyl)-3,4-dihydro-2H,6H-pyrido[1,2-e][1,2,5]thiadiazine-4-carboxylic acid 1,1-dioxide], for which the inhibition at 100 µM under setting [1] came to 22% and the inhibition at 100 µM under setting [2] was in the range of 11 to 30%.

As to `C=CCCN1CC(C(=O)O)n2c(c(-c3cccc(C(F)(F)F)c3)c(Cc3cccc4ccccc34)cc2=O)S1(=O)=O` (stereo not drawn) [Compound 024, 2-(but-3-en-1-yl)-8-(naphthalen-1-ylmethyl)-6-oxo-9-(3-(trifluoromethyl)phenyl)-3,4-dihydro-2H,6H-pyrido[1,2-e][1,2,5]thiadiazine-4-carboxylic acid 1,1-dioxide], the inhibition at 100 µM by setting is: under setting [1], 69%; under setting [2], above 60%.

Turning to `O=C(O)C1CSc2c(-c3cccc(C(F)(F)F)c3)c(Cc3cccc4ccccc34)cc(=O)n21` (single isomer, unassigned) [Compound 011a, 7-(naphthalen-1-ylmethyl)-5-oxo-8-(3-(trifluoromethyl)phenyl)-2,3-dihydro-5H-thiazolo[3,2-a]pyridine-3-carboxylic acid], the inhibition at 100 µM runs as follows: under setting [1], 13%; under setting [2], 11 to 30%.

In the case of `O=C(O)C1CN(CCCO)S(=O)(=O)c2c(-c3cccc(C(F)(F)F)c3)c(Cc3cccc4ccccc34)c(NC3CCCC3)c(=O)n21` (stereo not drawn) [Compound 120, 7-(cyclopentylamino)-2-(3-hydroxypropyl)-8-(naphthalen-1-ylmethyl)-6-oxo-9-(3-(trifluoromethyl)phenyl)-3,4-dihydro-2H,6H-pyrido[1,2-e][1,2,5]thiadiazine-4-carboxylic acid 1,1-dioxide], the inhibition at 100 µM reads like this: under setting [1], 40%; under setting [2], 31 to 60%.

Regarding `CN1CC(C(=O)O)n2c(c(-c3cccc(C(F)(F)F)c3)c(Cc3cccc4ccccc34)c(N)c2=O)S1(=O)=O` (stereo not drawn) [Compound 074, 7-amino-2-methyl-8-(naphthalen-1-ylmethyl)-6-oxo-9-(3-(trifluoromethyl)phenyl)-3,4-dihydro-2H,6H-pyrido[1,2-e][1,2,5]thiadiazine-4-carboxylic acid 1,1-dioxide], the inhibition at 100 µM is 38% under setting [1] and 31 to 60% under setting [2].

For `CCCN1CC(C(=O)O)n2c(c(-c3cccc(C(F)(F)F)c3)c(Cc3cccc4ccccc34)c(NC3CCOCC3)c2=O)S1(=O)=O` (stereo not drawn) [Compound 127, 8-(naphthalen-1-ylmethyl)-6-oxo-2-propyl-7-((tetrahydro-2H-pyran-4-yl)amino)-9-(3-(trifluoromethyl)phenyl)-3,4-dihydro-2H,6H-pyrido[1,2-e][1,2,5] thiadiazine-4-carboxylic acid 1,1-dioxide], the inhibition at 100 µM by setting is: under setting [1], 67%; under setting [2], above 60%.

In the case of `O=C(O)C1CN(CCCCCO)S(=O)(=O)c2c(-c3cccc(C(F)(F)F)c3)c(Cc3cccc4ccccc34)c(NC3CCCC3)c(=O)n21` (stereo not drawn) [Compound 122, 7-(cyclopentylamino)-2-(5-hydroxypentyl)-8-(naphthalen-1-ylmethyl)-6-oxo-9-(3-(trifluoromethyl)phenyl)-3,4-dihydro-2H,6H-pyrido[1,2-e][1,2,5]thiadiazine-4-carboxylic acid 1,1-dioxide], the inhibition at 100 µM by setting is: under setting [1], 38%; under setting [2], 31 to 60%.

On to `NC(=O)CN1CC(C(=O)O)n2c(c(-c3cccc(C(F)(F)F)c3)c(Cc3cccc4ccccc34)cc2=O)S1(=O)=O` (stereo not drawn) [Compound 028, 2-(2-amino-2-oxoethyl)-8-(naphthalen-1-ylmethyl)-6-oxo-9-(3-(trifluoromethyl)phenyl)-3,4-dihydro-2H,6H-pyrido[1,2-e][1,2,5]thiadiazine-4-carboxylic acid 1,1-dioxide], for which the inhibition at 100 µM was 33% under setting [1] and 31 to 60% under setting [2].

As to `Nc1c(Cc2cccc3ccccc23)c(-c2cccc(C(F)(F)F)c2)c2n(c1=O)C(C(=O)O)CS2(=O)=O` (stereo not drawn) [Compound 023, 6-amino-7-(naphthalen-1-ylmethyl)-5-oxo-8-(3-(trifluoromethyl)phenyl)-2,3-dihydro-5H-thiazolo[3,2-a]pyridine-3-carboxylic acid 1,1-dioxide], the inhibition at 100 µM is 21% under setting [1] and 11 to 30% under setting [2].

Take `O=C(O)C1CSc2c(-c3cccc(C(F)(F)F)c3)c(Cc3cccc4ccccc34)nc(=O)n21` (stereo not drawn) [Compound 022, 7-(naphthalen-1-ylmethyl)-5-oxo-8-(3-(trifluoromethyl)phenyl)-2,3-dihydro-5H-thiazolo[3,2-c]pyrimidine-3-carboxylic acid]: the inhibition at 100 µM is, setting by setting: under setting [1], 49%; under setting [2], 31 to 60%.

With `CN(C)Cc1c(Cc2cccc3ccccc23)c(-c2cccc(C(F)(F)F)c2)c2n(c1=O)C(C(=O)O)CS2` (stereo not drawn) [Compound 075, 6-((dimethylamino)methyl)-7-(naphthalen-1-ylmethyl)-5-oxo-8-(3-(trifluoromethyl)phenyl)-2,3-dihydro-5H-thiazolo[3,2-a]pyridine-3-carboxylic acid], the inhibition at 100 µM by setting is: under setting [1], 2%; under setting [2], -10 to 10%.

The term inhibition denotes the drop in the measured response relative to a control, in per cent.
